Assay results taken from patent US9681647B2, “Mammal with an orthotopic tumor capable of metastasis, a method of making and a method of using” (Cornell University, priority 2012, dated 2017).
Marks after values point to notes of the source that are not given here.

Experiments:
[1] = tested on: metastatic tumors made according to the present disclosure; test: Oxaliplatin treatment of metastatic tumors versus primary GI tumors and subcutaneous xenografts; format: in vivo
[2] = tested on: early stage CCIC colon/intestine and ex-GI xenograft tumors (CCR9/CCL25 axis); test: CCIC xenograft tumor formation after tail vein injection, CCR9/CCL25 blocked before or with cell injection (Table 2); format: in vivo, NOD/SCID mice
Text: CCR9 constitutive and inducible knockdown; Snail or CD26 knockdown in CCIC and NOTCH reporter CCIC. The lentiviral vector pEco-CMV-H1-shRNA-GFP encoding a shRNA hairpin sequence (CCR9: 5′-CTTGTACTGGC[…] ID NO:14; Snail: 5′-GAGCTGCAGG[…] ID NO:15; CD26: 5′-CATTCCTACAC[…] ID NO:16) was used for CCR9, Snail or CD26 expression knockdown and the lentiviral vectors pEco-CMV-H1-GFP (GenTarget Inc, San Diego, Calif.) and pEco-CMV-H1-scrambled-shRNA-GFP served as controls. To generate the lentiviral vectors, the above plasmids were transfected into HEK293T cells with the Genetargetlentivirus packaging mix (GenTarget Inc, San Diego, Calif.) according to the manufacturer's protocol. For CCR9 tetracycline inducible knockdown, the same shRNA hairpin sequence against CCR9 gene was inserted into pLenti-H1-shRNA-RSV (GFP-Puro) vector (GenTarget Inc, San Diego, Calif.) and packaged into lentivirus particles, which were used together with another TetR expression lentivirus (RFP-Bsd)(GenTarget Inc, San Diego, Calif.) to infect CCICs. After antibiotic selection and GFP/RFP dual FACS purification, the CCR9 shRNA knockdown can be induced by 1 ug/ml (in vitro) or 1 mg/ml (in vivo) doxycycline. NOTCH signaling reporter CCIC was generated by infecting CCIC with pCignalLenti RBP-Jk Reporter (GFP) ready lentivirus (SABiosciences, Inc.). After infecting CCIC lines with these lentiviral vectors, stable knockdown clones were obtained through antibiotic selection of blasticidin (Invitrogen, Carlsbad, Calif.). The efficiency of the CCR9, SNAIL or CD26 knockdown in CCIC was verified by Western Blotting and efficiency of NOTCH signaling reporter was tested by 2 μg/ml Jagged-1 (AnaSpec) treatment following by GFP-FACS sorting.
CCIC xenograft tumor formation in colon/intestine and other organs. 0.5-1×10^6CCIC or common CRC cells were injected into 6-8 weeks old non-obese diabetic/severe combined immunodeficient (NOD/SCID) mice (Jackson Laboratory, Bar Harbor, Me.) by tail vein injection. Tumor incidence was monitored 2-3× weekly. When mice became moribund, they were sacrificed immediately, necropsy performed and tumors harvested using a dissecting microscope. For ex vivo GFP imaging of tumor tissues, lentiviral infection by the pEco-CMV-GFP vector was used to generate CCIC lines that stably express GFP and maintained in puromycin selection. 10^6 of these fluorescent CCIC were systemically injected as described above. Intestinal tissues harvested at the time of sacrifice were analyzed for GFP expression with Cri Maestro Imaging Systems (Cambridge Research & Instrumentation Inc, Woburn, Mass.).
For the CCR9 study, native CCICs, CCICs with CCR9, Snail (SNAL1) or CD26 knockdown (or commonly used CRC cell lines such as HCT116, etc. as indicated), CCR9+ CCIC with CCR9 inducible knockdown were intravenously inoculated into the 6-8 weeks old NOD/SCID mice by tail vein. Mice that became moribund were sacrificed immediately, whereas the rest were closely monitored for 16 weeks before sacrifice. To test whether CCL25 antibody could inhibit the CCL25-CCR9 GI homing mechanism in vivo, a dose of 100 ug goat anti-mouse CCL25 neutralization antibody (R&D systems, Cat #AF-481-NA), was IP administrated to each mouse twice (the same dose and schedule as used in). As a negative control, a dose of 100 ug Goat IgG (R&D systems) was administered to each mouse in the control group. Then 1×10^6CCIC were injected into the mice 8 hours after or with the injection of the antibody. To test whether extra-GI metastasis is induced by CCR9/CCL25 signaling blockade, CCL25 neutralization antibody with the same dose was IP administrated to each mouse every three days or 1 mg/ml doxycycline in drinking water was given to mice every other days starting from the fourth week after CCIC inoculation until mice get moribund.

[3] = mice tail vein injected with early stage CCIC, blockade before/concurrent with injection or constitutive shRNA KD

| Compound | chemoresistance of metastatic tumors relative to primary GI tumors and subcutaneous xenografts [1] | overall survival of mice vs. control ([2]; mice systemically injected with CCIC, Kaplan-Meier, FIG. 6C) | Ex-GI Tumor Incidence (%) [2, 3] | GI Tumor Incidence (%) [2, 3] | Mean Ex-GI Tumors/Mouse [2, 3] | Mean GI Tumors/mouse [2, 3] | Mean Progression (weeks) ([2]; mice tail vein injected with early stage CCIC, time until moribund, blockade before/concurrent with injection or constitutive shRNA KD) |
| --- | --- | --- | --- | --- | --- | --- | --- |
| O=C1[O][Pt]2([NH][C@@H]3CCCC[C@H]3[NH]2)[O]C1=O [oxaiplatin] | more chemoresistant |  |  |  |  |  |  |
| CCR9 KD: constitutive lentiviral shRNA against CCR9 (hairpin 5'-CTTGTACTGGCTCGTGTTCAT, SEQ ID NO:14) expressed in CCIC |  | significantly longer | 85.7% | 14.3* % | 105.0* | 0.3* | 13.0* weeks |
